{"source": "patent US5141627A", "about": "“Chelators whose affinity for calcium ion is increased by illumination” (The Regents of the University of California, priority 1989, dated 1992)", "key": {"[1]": {"assay": "Yield of high affinity chelator / low-affinity side product after photolysis", "format": "physicochemical", "description": "Because of the direct conjugation of the dialkylamine moiety with the diazoketone group, diazo-2 has a large absorbance in the 350-400 nm range, which shifts 50 nm to shorter wavelengths on binding Ca^2+ (FIG. 1A). The dissociation constant for Ca^2+ is relatively high, at 2.2 μM, due to the electron withdrawing ability of the carbonyl group. Photolysis occurs at 365 nm with a quantum yield of 0.030. The peak at […] in zero Ca^2+ decreases to near baseline giving a spectrum similar to that of unsubstituted BAPTA, although a small peak remains at 355 nm (FIG. 1B). […] The reaction of diazo-2 with dilute aqueous acid should give the same product whose absorbance spectrum indeed matched that of the residual peak at 355 nm after photolysis in low Ca^2+. […] Once the extinction coefficient for the hydroxyacetyl derivative was known, the amount of the side product arising from photolysis is calculated to be about 10%."}, "[2]": {"assay": "Quantum efficiency and completion of photolysis", "format": "physicochemical", "description": "Spectra were obtained after 0, 2, 5, 9, 16, 28, 46, 80, 150, 285, 505 and 903 sec of 365-nm illumination at 7.82×10^- 9 einsteins cm^-2 s^-1 from Spectroline lamp. For clarity only the 0-, 9-, 28-, 46-, 80-, 150-, and 505-s spectra are reproduced herein. The 505- and 903-s spectra were identical, confirming completion of photolysis after those times. Solutions were at 22±2° C.\nThe method was as described in FIG. 1B except that the EGTA was replaced by 2 mM CaCl2, and spectra were measured after 0-, 50-, 100-, 203-, 412-, 840-, 1730-, 4080-, and 8000-s illumination. The last two spectra were identical, confirming completion. For clarity the 50- and 8000-s spectra are omitted.\nThe photolysis quantum efficiencies of diazo chelators were determined by alternately irradiating a buffered solution of the substrate with a known intensity of longwave UV light, and measuring the absorbance spectrum, in apparatus described by S. R. Adams, et al. (1988), supra."}, "[3]": {"assay": "Absorbance spectra of free and Ca2+-bound chelators", "format": "physicochemical", "description": "(§1) The titration was done at 22° C. with 10 mL of 100 mM KCl, 10 mM K-MOPS, 10 mM K2 H.HEEDTA, and 14 […] diazo-2 as starting materials, adjusting the pH to 7.24, recording the spectrum, and then discarding 1.0 mL of this solution and replacing with 1.0 mL of 100 mM KCl, 10 mM K.MOPS, 10 mM KCa.HEEDTA, 14 μM diazo-2, readjusting the pH to 7.24, and recording the spectra, which was then in 9 mM K2H.HEEDTA. Subsequent iterations to reach n mM KCa.HEEDTA, (10-n) mM HEEDTA, n=2-10, were done by discarding 10.0/(11-n) mL and replacing with equal volumes of the 10mM KCa.HEEDTA, 14 μM diazo-2 stock. After n=10 had been reached to give free Ca^2+ between 10^-5 and 10^-4 M, addition of 1 mM CaCl2 had no further effect on the spectrum. For clarity only six spectra are including in the figure, n=0, 2, 4, 6, 8, and 10. Each spectrum is labeled with the calculated free [Ca^2+ ] imposed by the HEEDTA buffer, assuming a log effective stability constant of 5.55 at pH 7.24.\n(§2) The phenylacetate was produced by irradiating a 30 μM solution of diazo-2 in 100 mM KCl, 10 mM Tris.HCl, 10 mM K2 H.HEEDTA, pH 8.40, with Spectroline lamp at 365 nm to completion. The titration was then performed as in A but the pH was maintained at 8.40, at which the calculated log effective stability is constant for HEEDTA was 6.60.\nProton magnetic resonance spectra (^1 H NMR) were recorded on a Varian EM-390 90-MHz spectrometer in CDCl3 unless otherwise noted, and the chemical shifts are given in δ values relative to tetramethylsilane. Ultraviolet (UV) absorbance spectra were recorded on a Cary 210 or a Perkin-Elmer Lambda Array 3840 spectrophotometer at 20°±2° C. Melting points are in Centigrade and are uncorrected. Elemental analyses were performed by the Microanalytical Laboratory in the Department of Chemistry, University of California, Berkeley, Calif."}, "[4]": {"assay": "Ca2+ affinity by UV spectra during titration of EGTA or HEEDTA buffers", "format": "binding", "description": "as §1, §2\n(§3) Ca^2+ -binding constants for chelators before and after photolysis were determined by monitoring UV spectra during titration of EGTA or HEEDTA buffers to varying free Ca^2+ levels.\nEither the ratio of, for example, [Ca.EGTA] to free [EGTA] was adjusted at a constant pH, or the pH was varied while [Ca.EGTA]=[EGTA]. These two approaches gave equivalent answers for pH>7 whenever directly tested, because of the pH insensitivity of BAPTA-like ligands (see FIG. 1 legend for more details). The apparent dissociation constants of Ca.EGTA and Ca.HEEDTA were calculated as described by R. Y. Tsien (1980); see also R. Y. Tsien, et al. (1986), S. R. Adams, et al. (1980), Grynkiewicz, et al., (1985), and Jackson, et al. (1987)."}, "[5]": {"assay": "Mg2+ affinity in Mg/EGTA buffers", "format": "binding", "details": "after photolysis; 0.1-0.15M ionic strength, pH 7.0-7.4, 20-23° C.; read-out: Kd (Mg2+), after photolysis", "description": "as §3\nFree [Mg^2+ ] was likewise controlled by Mg/EGTA buffers, assuming an apparent dissociation constant for the Mg.EGTA complex (including its monoprotonated form) of 6 mM at pH 7.60 in 0.1M ionic strength; see R. Y. Tsien, et al. (1986) and A. E. Martell, et al. (1974)."}, "[6]": {"test_system": "REF52 fibroblast cell", "assay": "Intracellular free Ca2+ in REF52 fibroblasts on vasopressin stimulation and UV photolysis (fluo-3)", "format": "cell-based, Fisher rat", "details": "50 nM [arg8]-vasopressin", "description": "The tetraacetoxymethyl esters of diazo-2 and diazo-3 were synthesized. The acetoxymethyl (AM) groups mask the negative charges on the carboxylate functions, so the AM ester of diazo-2 and diazo-3 can easily diffuse across the cell membrane, which is largely impermeable to ions. Once inside the cell, non-specific esterases in the cell hydrolytically cleave the AM esters and restore diazo-2 and diazo-3 to their tetracarboxylate forms, which being polyanions, are trapped within the cell. […] Prior to the start of data acquisition (t=0), the REF52 fibroblast cell was loaded with diazo-2 and fluo-3. […] Its fluorescence quantum yield is enhanced about 40-fold by Ca^2+ binding, which occurs with a Kd of 400 nM.\nPrior to the start of data acquisition, the REF52 fibroblast cell was loaded with fluo-3 and diazo-2 by incubation for 30 min at 25° C. DME medium containing 1 μM diazo-2/AM and 10 μM fluo-3/AM. Acquisition of fluo-3 fluorescence intensity images was begun at time 0. The fluorescence intensity data was converted to intracellular Ca^2+ concentrations using a calibration procedure previously described. The event markers correspond to 1) stimulating the cell with 50 nM [arg^8 ]-vasopressin,and 2) flashing the cell for 1 s with UV light.\nThe experimental conditions were the same as in (A) except that the cell wa loaded with fluo-3 and diazo-3 (instead of diazo-2) by incubation for 90 min at 25° C. in DME medium containing 10 μm fluo-3/AM and […] diazo-3/AM. The event markers correspond to 1) stimulating the cell with 50 nM [arg^8 ]-vasopressin, and 2) flashing the cell for 1 s of UV light.\nFor preliminary biological tests, Fisher rat embryo fibroblast of the REF52 cell line were cultured as described by J. P. Y. Kao, et al. (1989).\nFor testing diazo-2, REF52 cells were incubated for 30 min at 25° C. in Dulbecco's modified Eagle's medium, buffered at pH 7.4 with 20 mM HEPES and containing 1 μM diazo-2/AM and 10 μM fluo-3/AM. For control experiments using diazo-3, the cells were incubated for 90 min at 25° C. in DMEM, buffered to pH 7.4 with 20 mM HEPES and containing 1 μM diazo-3/AM and […] fluo-3/AM. After loading, the cells were gently washed, transferred into Hanks' Balanced Salt Solution containing 0.2 mM sulfinpyrazone to inhibit non-specific organic anion transport (see Tsien, 1989), and mounted on a 25° C. microscope stage for experimentation.\nFlash photolysis of trapped cellular diazo-2 and the concomitant monitoring of intracellular free Ca^2+ concentration with fluo-3, a fluorescent Ca^2+ indicator, were performed using methodology and instrumentation described in A. Minta, et al (1989) and J. P. Y. Kao, et al. (1989). Briefly, output form a Xe arc lamp was passed through a monochromator to yield the 490 nm light used to probe the fluo-3 trapped intracellularly. The fluo-3 fluorescence images of cells were recorded using a SIT TV camera. Images were stored on a high-resolution monochrome laser disc recorder (Panasonic TQ-2028) for delayed processing. Photolyses were performed by briefly moving a chopper mirror to send broad-band UV from an XBO 75 W xenon arc lamp and UG-2 filter into the microscope instead of 490 nm fluo-3 excitation. The microscope objective (Nikon UV-CF, 40X) was chosen for its high UV transmission and numerical aperture (1.3). […] The same computer was used to analyze the fluorescence images acquired during the experiment."}}, "note": "pKd: −log10 of the molar value. Bridges are numbered along the chain shown (N, C = ends). Where no end group is shown, it is not given here.", "data": [{"molecule": "[N-]=[N+]=CC(=O)c1ccc(N(CC(=O)O)CC(=O)O)c(OCCOc2cc(C(=O)C=[N+]=[N-])ccc2N(CC(=O)O)CC(=O)O)c1", "note": "[diazo-4, 1,2-bis(2-bis(carboxymethyl)amino-5-(diazoacetyl)phenoxy)ethane]", "values": [{"measurement": "Photolysis yield (yield of high affinity Ca2+ chelator after photolysis)", "setting": "[1]; after photolysis", "result": 88}, {"measurement": "low-affinity side product on complete photolysis, expected", "setting": "[1]; complete photolysis, expected", "result": 19, "unit": "%"}, {"measurement": "low-affinity side product on complete photolysis, measured", "setting": "[1]; residual absorbance at 355 nm", "result": 20, "unit": "%"}, {"measurement": "quantum yield relative to diazo-2", "setting": "[2]; compared with diazo-2", "result": "approximately half that of diazo-2"}, {"measurement": "Φ quantum efficiency of photolysis, +Ca2+", "setting": "[2]; saturating [Ca2+]", "result": 0.015}, {"measurement": "Φ quantum efficiency of photolysis, free", "setting": "[2]; zero [Ca2+]", "result": 0.015}, {"measurement": "εmax, +Ca2+", "setting": "[3]; +Ca2+, at λmax", "result": "42.3 10^-3, M^-1 cm^-1"}, {"measurement": "λmax, +Ca2+", "setting": "[3]; +Ca2+, dominant peak at longest wavelength", "result": 320, "unit": "nm"}, {"measurement": "εmax, free", "setting": "[3]; free (zero Ca2+), at λmax", "result": "46.0 10^-3, M^-1 cm^-1"}, {"measurement": "λmax, free", "setting": "[3]; free (zero Ca2+), dominant peak at longest wavelength", "result": 371, "unit": "nm"}, {"measurement": "pKd", "setting": "[4]; after photolysis, 0.1-0.15M ionic strength, 20-23° C., read-out: Kd (Ca2+), after photolysis", "result": 7.26}, {"measurement": "pKd", "setting": "[4]; before photolysis, 0.1-0.15M ionic strength, pH 7.0-7.4, 20-23° C., read-out: Kd (Ca2+), before photolysis", "result": 4.05}, {"measurement": "change in Ca2+ affinity upon photolysis", "setting": "[4]; complete photolysis", "result": 1600, "unit": "fold"}, {"measurement": "pKd", "setting": "[5]", "result": 2.59}]}, {"molecule": "Cc1ccc(N(CC(=O)O)CC(=O)O)c(OCCOc2cc(C(=O)CO)ccc2N(CC(=O)O)CC(=O)O)c1", "note": "[para-(2-hydroxyacetyl) derivative]", "values": [{"measurement": "amount of side product arising from photolysis", "setting": "[1]; hydroxyacetyl derivative, from photolysis of diazo-2, calculated", "result": "about 10%"}, {"measurement": "photosensitivity (in words)", "setting": "[2]; product of diazo-2 with dilute aqueous acid", "result": "complete lack of photosensitivity"}, {"measurement": "pKd", "setting": "[4]; side product after photolysis of diazo-2, from deviation of Hill plot, read-out: dissociation constant of side product", "result": "~6.00"}]}, {"molecule": "[arg^8 ]-vasopressin: stimulus of the REF52 cell, 50 nM (CYFQNCPRG-NH2; disulfide 1-6; UniProt P01185 20-28, looked up) [reference compound]", "values": [{"measurement": "[Ca2+]i response to stimulation (in words)", "setting": "[6]", "result": "sharp but transient rise"}, {"measurement": "[Ca2+]i plateau after stimulation", "setting": "[6]; before UV", "result": "about 200 nM"}]}]}
